Source: patent US9738642B2, “Triazolopyridine ether derivatives and their use in neurological and pyschiatric disorders” (BRISTOL-MYERS SQUIBB COMPANY, priority 2013, dated 2017)

Molecular target: T1, human mGluR2 (Homo sapiens, UniProt Q14416)
T1 construct: expressed in transfected cells; host or cells: HEK293 clonal line
Experiment: mGluR2 cAMP assay
Assay type: cell-based
Conditions: clonally expressed human mGluR2 in HEK293; 1 μM forskolin, 1 μM LY-341495, 30 min; CISBIO cAMP kit; read-out: EC50 (nM), activity in mGluR2 cAMP assay

T1 sequence (Q14416 19-872): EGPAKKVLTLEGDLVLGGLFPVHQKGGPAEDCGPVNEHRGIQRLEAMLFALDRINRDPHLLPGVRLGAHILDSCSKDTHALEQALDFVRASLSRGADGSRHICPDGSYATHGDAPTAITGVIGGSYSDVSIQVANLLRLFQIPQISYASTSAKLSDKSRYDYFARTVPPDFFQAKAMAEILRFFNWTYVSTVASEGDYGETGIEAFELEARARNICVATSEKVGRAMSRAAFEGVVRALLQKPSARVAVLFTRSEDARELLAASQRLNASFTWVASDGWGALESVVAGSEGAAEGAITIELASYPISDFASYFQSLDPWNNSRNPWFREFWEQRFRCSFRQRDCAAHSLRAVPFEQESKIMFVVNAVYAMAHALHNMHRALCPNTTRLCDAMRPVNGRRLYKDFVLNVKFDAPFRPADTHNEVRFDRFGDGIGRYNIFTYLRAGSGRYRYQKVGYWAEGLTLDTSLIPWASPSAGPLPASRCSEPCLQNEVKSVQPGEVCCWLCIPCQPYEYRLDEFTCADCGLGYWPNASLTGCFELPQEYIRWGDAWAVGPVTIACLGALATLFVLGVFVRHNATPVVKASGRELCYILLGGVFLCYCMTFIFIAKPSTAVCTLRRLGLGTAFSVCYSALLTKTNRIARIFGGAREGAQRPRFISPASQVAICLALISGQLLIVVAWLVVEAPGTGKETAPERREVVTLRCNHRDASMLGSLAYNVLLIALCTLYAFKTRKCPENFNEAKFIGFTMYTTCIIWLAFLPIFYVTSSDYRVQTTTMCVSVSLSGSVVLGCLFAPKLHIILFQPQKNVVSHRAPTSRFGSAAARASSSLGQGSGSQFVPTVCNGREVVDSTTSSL

Q: `[2H]C([2H])([2H])O[C@]1(c2ccc(F)cc2)CC[C@H](Oc2ccn3c(CC4CC4)nnc3c2C(F)(F)F)CC1` [Example 99, 3-(Cyclopropylmethyl)-7-((1s,4s)-4-(4-fluorophenyl)-4-(methoxy-d3)cyclohexyloxy)-8-(trifluoromethyl)-[1,2,4]triazolo[4,3-a]pyridine] was tested. Which EC50 did it give?
A: Its EC50 is 0.5 nM.
